Consider 17 compounds from ChEMBL document CHEMBL4732191, “Synthesis of novel potent cytotoxicy podophyllotoxin-naphthoquinone compounds via microwave-assited multicomponent domino reactions” (Bioorg Med Chem Lett, 2021).

Data set [1] deals with KB. Nature of the data set: Cytotoxicity against human KB cells. The format is functional, cell-based.
Data set [2] has as its system HepG2. Nature of the data set: Cytotoxicity against human HepG2 cells. It is filed as functional, cell-based.
Data set [3] concerns SK-LU-1. The data set is described as follows: Cytotoxicity against human SK-LU-1 cells. The format is functional, cell-based.
For data set [4], the system named is MCF7. Nature of the data set: Cytotoxicity against human MCF7 cells. The format is functional, cell-based.
The test system of data set [5] is HEK293. Nature of the data set: Cytotoxicity against human HEK293 cells. It is filed as cell-based.
Data set [6] can be described thus: Selectivity index, ratio of IC50 for human HEK293 cells to IC50 for human HepG2 cells. To be noted: HEK293 cells and HepG2 cells, read-out: Ratio IC50. The format is toxicity.
Data set [7] can be described thus: Selectivity index, ratio of IC50 for human HEK293 cells to IC50 for human SK-LU-1 cells.

Bounds are passed on as bounds.

The IC50 is the point on the concentration scale where inhibition reaches its midpoint. Low readings indicate greater potency, high ones weaker potency. Take `O=C1OCC2=C1C(c1ccc(C(F)(F)F)cc1)C1=C(N2)C(=O)c2ccccc2C1=O` (stereo not drawn): the IC50 in data set [1] was 800 nM; in data set [2], 1240 nM; in data set [3] it was 510 nM; in data set [4], more than 2500 nM; in data set [5], 7590 nM.

Regarding `COc1cccc(C2C3=C(COC3=O)NC3=C2C(=O)c2ccccc2C3=O)c1` (stereo not drawn), the IC50 in data set [1] was 1230 nM; in data set [2], 460 nM; in data set [3], less than 40 nM; in data set [4], more than 2500 nM; in data set [5], 9350 nM. Further, the selectivity ratio in data set [6] was not below 200. Also, the “Ratio IC50” value in data set [7] is reported as “>=200”.

Take `COc1ccc(C2C3=C(COC3=O)NC3=C2C(=O)c2ccccc2C3=O)cc1` (stereo not drawn): the IC50 was 880 nM in data set [1]; 2060 nM in data set [2]; 880 nM in data set [3]; more than 2500 nM in data set [4]; 8170 nM in data set [5].

For `O=C1OCC2=C1C(c1ccc(F)cc1)C1=C(N2)C(=O)c2ccccc2C1=O` (stereo not drawn), the IC50 was 2160 nM in data set [1]; 440 nM in data set [2]; 280 nM in data set [3]; more than 2500 nM in data set [4]; 5350 nM in data set [5].

Consider `O=C1OCC2=C1C(c1ccc3c(c1)C(=O)OC3)C1=C(N2)C(=O)c2ccccc2C1=O` (stereo not drawn), for which the IC50 in data set [1] was 1860 nM; in data set [2], 470 nM; in data set [3], 80 nM; in data set [4], more than 2500 nM; in data set [5] it was 4780 nM.

Turning to `O=C1OCC2=C1C(c1cccc3ccccc13)C1=C(N2)C(=O)c2ccccc2C1=O` (stereo not drawn), the half-inhibitory concentration (IC50) is more than 2500 nM in data set [1]; more than 2500 nM in data set [2]; more than 2500 nM in data set [3]; more than 2500 nM in data set [4]; 14700 nM in data set [5].

Take `O=C1OCC2=C1C(c1ccccc1)C1=C(N2)C(=O)c2ccccc2C1=O` (stereo not drawn): the IC50 in data set [1] is 1540 nM; in data set [2], less than 44 nM; in data set [3] it was less than 44 nM; in data set [4] it was 1980 nM; in data set [5], 1340 nM. Also, the selectivity ratio in data set [6] was not below 200. Besides, the “Ratio IC50” value in data set [7] is on record as “>=200”.

With `COc1cc(C2C3=C(COC3=O)NC3=C2C(=O)c2ccccc2C3=O)ccc1O` (stereo not drawn), the IC50 in data set [1] was 1900 nM; in data set [2], 410 nM; in data set [3], 410 nM; in data set [4] it was more than 2500 nM; in data set [5] it was 1410 nM.

In the case of `O=C1OCC2=C1C(c1ccc(Cl)cc1)C1=C(N2)C(=O)c2ccccc2C1=O` (stereo not drawn), the IC50 in data set [1] is 1460 nM; in data set [2], 1350 nM; in data set [3], 500 nM; in data set [4] it was more than 2500 nM; in data set [5], 5890 nM.

As to `O=C1OCC2=C1C(c1ccccc1[N+](=O)[O-])C1=C(N2)C(=O)c2ccccc2C1=O` (stereo not drawn), the IC50 in data set [1] is 2340 nM; in data set [2], more than 2500 nM; in data set [3], 2220 nM; in data set [4], more than 2500 nM; in data set [5] it was 9950 nM.

Take `O=C1OCC2=C1C(c1cccc([N+](=O)[O-])c1)C1=C(N2)C(=O)c2ccccc2C1=O` (stereo not drawn): the IC50 is 1160 nM in data set [1]; less than 39 nM in data set [2]; less than 39 nM in data set [3]; 2190 nM in data set [4]; 1470 nM in data set [5]. Besides, in data set [6], the selectivity ratio was not below 200. Further, the “Ratio IC50” value in data set [7] is “>=200”.

On to `O=C1OCC2=C1C(c1cccc(Br)c1)C1=C(N2)C(=O)c2ccccc2C1=O` (stereo not drawn), for which the IC50 is 1710 nM in data set [1]; less than 36 nM in data set [2]; less than 36 nM in data set [3]; more than 2500 nM in data set [4]; 7200 nM in data set [5]. For the same compound, in data set [6], the selectivity ratio was not below 200. In data set [7], the “Ratio IC50” value was “>=200”.

For the compound `O=C1OCC2=C1C(c1ccccc1F)C1=C(N2)C(=O)c2ccccc2C1=O` (stereo not drawn), the IC50 in data set [1] is 1190 nM; in data set [2], 420 nM; in data set [3] it was 280 nM; in data set [4], more than 2500 nM; in data set [5] it was 10300 nM.

Regarding `O=C1OCC2=C1C(c1ccc(Br)cc1)C1=C(N2)C(=O)c2ccccc2C1=O` (stereo not drawn), the IC50 in data set [1] is 2140 nM; in data set [2], 1500 nM; in data set [3], 450 nM; in data set [4], more than 2500 nM; in data set [5] it was 8270 nM.

For the compound `O=C1OCC2=C1C(c1ccc3ccccc3c1)C1=C(N2)C(=O)c2ccccc2C1=O` (stereo not drawn), the IC50 was more than 2500 nM in data set [1]; 1680 nM in data set [2]; 1020 nM in data set [3]; more than 2500 nM in data set [4]; 7610 nM in data set [5].

Regarding `Cc1ccc(C2C3=C(COC3=O)NC3=C2C(=O)c2ccccc2C3=O)cc1` (stereo not drawn), the IC50 in data set [1] is more than 2500 nM; in data set [2] it was 2240 nM; in data set [3], 1650 nM; in data set [4], more than 2500 nM; in data set [5], 21600 nM.

For the compound `Cc1c2ccncc2c(C)c2c1[nH]c1ccccc12` [ELLIPTECINE], the IC50 in data set [1] was 1750 nM; in data set [2] it was 1660 nM; in data set [3] it was 1540 nM; in data set [4], 1580 nM; in data set [5], 1690 nM.
